In ChEMBL document CHEMBL1201862, “PubChem BioAssay data set” (2004):
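Growth conditions: 96-well plates. Treatment: test compound, 48 hours, 5 concentrations. Analysis: linear interpolation between bracketing concentrations; unreached endpoints set to highest concentration. GI50: concentration for 50% inhibition of growth.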 Active and inactive are the calls of the source. Rule as the data show it: active = GI50 up to about 1.1 µM and inactive = higher. *1 amine or outer side, *2 acyl side, *3 side chain or, on linkers, in order; H or OH if unused. Where a SMILES comes first, the peptide text is derived from it. Bridges are numbered along the chain shown (N, C = ends). Roman numbers before positions name the chains, in order. [ ]: non-standard residue; d: D form. Actinocin(9to1) = Cc1c2oc3c(C)ccc(C(=O)[*:1])c3nc-2c(C(=O)[*:2])c(N)c1=O; NMeV = CN[CH](C(=O)O)C(C)C; Sar = CNCC(=O)O

Experiments:
Experiment in all cases: NCI anticancer screen, dose series, 48 h
BT-549 = test system: BT-549
K562 = test system: K562
HOP-62 = test system: HOP-62
MDA-N = test system: MDA-N
UACC-257 = test system: UACC-257
SNB-19 = test system: SNB-19
A498 = test system: A498
LOX IMVI = test system: LOX IMVI
SK-MEL-5 = test system: SK-MEL-5
NCI-H522 = test system: NCI-H522
OVCAR-5 = test system: OVCAR-5
U-251 = test system: U-251
SF-268 = test system: SF-268
EKVX = test system: EKVX
Malme-3M = test system: Malme-3M
786-0 = test system: 786-0
HT-29 = test system: HT-29
RXF 393 = test system: RXF 393
HCT-116 = test system: HCT-116
NCI-H23 = test system: NCI-H23
IGROV-1 = test system: IGROV-1
CCRF-CEM = test system: CCRF-CEM
OVCAR-4 = test system: OVCAR-4
Hs-578T = test system: Hs-578T
HL-60 = test system: HL-60
DU-145 = test system: DU-145
UO-31 = test system: UO-31
OVCAR-3 = test system: OVCAR-3
HOP-92 = test system: HOP-92
A549 = test system: A549
MDA-MB-435 = test system: MDA-MB-435
NCI-H460 = test system: NCI-H460
SNB-75 = test system: SNB-75
M14 = test system: M14
COLO 205 = test system: COLO 205
NCI-H226 = test system: NCI-H226
SF-539 = test system: SF-539
T47D = test system: T47D
OVCAR-8 = test system: OVCAR-8
NCI/ADR-RES = test system: NCI/ADR-RES
SF-295 = test system: SF-295
CAKI-1 = test system: CAKI-1
SK-MEL-28 = test system: SK-MEL-28
RPMI-8226 = test system: RPMI-8226
MOLT-4 = test system: MOLT-4
HCT-15 = test system: HCT-15
TK-10 = test system: TK-10
UACC-62 = test system: UACC-62
SR = test system: SR
MCF7 = test system: MCF7
PC-3 = test system: PC-3
SK-OV-3 = test system: SK-OV-3
ACHN = test system: ACHN
KM12 = test system: KM12
SN12C = test system: SN12C
SW-620 = test system: SW-620
MDA-MB-231 = test system: MDA-MB-231
SK-MEL-2 = test system: SK-MEL-2
HCC 2998 = test system: HCC 2998

Measured: GI50

NCCOc1ccccn1
inactive: BT-549 > 100 µM | K562 > 100 µM | HOP-62 > 100 µM | MDA-N > 100 µM | UACC-257 > 100 µM | SNB-19 > 100 µM | A498 > 100 µM | LOX IMVI > 100 µM | SK-MEL-5 > 100 µM | NCI-H522 > 100 µM | OVCAR-5 > 100 µM | U-251 > 100 µM | SF-268 > 100 µM | EKVX > 100 µM | Malme-3M > 100 µM | 786-0 > 100 µM | HT-29 > 100 µM | RXF 393 > 100 µM | HCT-116 > 100 µM | NCI-H23 > 100 µM | IGROV-1 > 100 µM | CCRF-CEM > 100 µM | OVCAR-4 > 100 µM | Hs-578T > 100 µM | HL-60 > 100 µM | DU-145 > 100 µM | UO-31 > 100 µM | OVCAR-3 > 100 µM | HOP-92 > 100 µM | A549 > 100 µM | MDA-MB-435 > 100 µM | NCI-H460 > 100 µM | SNB-75 > 100 µM | M14 > 100 µM | COLO 205 > 100 µM | NCI-H226 > 100 µM | SF-539 > 100 µM | T47D > 100 µM | OVCAR-8 > 100 µM | NCI/ADR-RES > 100 µM | SF-295 > 100 µM | CAKI-1 > 100 µM | SK-MEL-28 > 100 µM | RPMI-8226 > 100 µM | MOLT-4 > 100 µM | TK-10 > 100 µM | UACC-62 > 100 µM | SR > 100 µM | MCF7 > 100 µM | PC-3 > 100 µM | SK-OV-3 > 100 µM | ACHN > 100 µM | KM12 > 100 µM | SN12C > 100 µM | SW-620 > 100 µM | MDA-MB-231 > 100 µM | SK-MEL-2 > 100 µM
> 100000 nM: HCT-15

Cc1c2oc3c(C)ccc(C(=O)NC4C(=O)NC(Cc5ccccc5)C(=O)N5CCCC5C(=O)N(C)CC(=O)N(C)C(C(C)C)C(=O)OC4C)c3nc-2c(C(=O)NC2C(=O)NC(Cc3ccccc3)C(=O)N3CCCC3C(=O)N(C)CC(=O)N(C)C(C(C)C)C(=O)OC2C)c(N)c1=O (stereo not given) (I: TFP[Sar][NMeV] / II: TFP[Sar][NMeV]; ester I:1-I:C, II:1-II:C; linker I:N-II:N via Actinocin(9to1); configuration not given here)
29.6 nM: HCT-15
active: BT-549 0.01 µM | K562 < 0.001 µM | HOP-62 0.0119 µM | MDA-N 0.00162 µM | UACC-257 < 0.001 µM | A498 0.00204 µM | LOX IMVI < 0.001 µM | SK-MEL-5 < 0.001 µM | NCI-H522 < 0.001 µM | OVCAR-5 0.00484 µM | U-251 < 0.001 µM | SF-268 < 0.001 µM | EKVX 0.136 µM | Malme-3M < 0.001 µM | 786-0 < 0.001 µM | HT-29 < 0.001 µM | RXF 393 0.0135 µM | HCT-116 < 0.001 µM | NCI-H23 < 0.001 µM | IGROV-1 < 0.001 µM | CCRF-CEM < 0.001 µM | OVCAR-4 0.0171 µM | Hs-578T 0.0011 µM | HL-60 < 0.001 µM | DU-145 < 0.001 µM | UO-31 0.00354 µM | OVCAR-3 < 0.001 µM | A549 < 0.001 µM | MDA-MB-435 < 0.001 µM | NCI-H460 < 0.001 µM | SNB-75 0.00577 µM | M14 0.0105 µM | COLO 205 < 0.001 µM | NCI-H226 < 0.001 µM | SF-539 0.123 µM | T47D < 0.001 µM | OVCAR-8 < 0.001 µM | NCI/ADR-RES 0.439 µM | SF-295 < 0.001 µM | CAKI-1 0.00151 µM | SK-MEL-28 < 0.001 µM | RPMI-8226 < 0.001 µM | MOLT-4 < 0.001 µM | TK-10 0.021 µM | UACC-62 < 0.001 µM | SR < 0.001 µM | MCF7 < 0.001 µM | PC-3 < 0.001 µM | SK-OV-3 < 0.001 µM | ACHN < 0.001 µM | KM12 < 0.001 µM | SN12C < 0.001 µM | SW-620 < 0.001 µM | HCC 2998 < 1 nM | MDA-MB-231 0.022 µM | SK-MEL-2 < 0.001 µM
